The nature of data set [1]: Risperidone release from ATRIGEL implants in rats (implant retrieval; 24-hour burst, 14-day and 28-day studies). It counts as in vivo, Sprague-Dawley rats. As to conditions: 28 days.
Experimental: The retrieved implants and tissue were placed in a −86° C. freezer for at least 1 hour. The frozen samples were lyophilized for at least 4 hours. The dry samples were minced with scissors, which were cleaned after each sample to minimize cross-contamination. The samples were minced until powder-like. Approximately 5 mL of 70:30 dimethylsulfoxide/methanol with 1% polyethyleneimine extraction solvent was added to each sample. The samples were mixed overnight at about 200 rpm at 37° C. on the orbital shaker. The samples were sonicated for 10 minutes. 1.5 mL of the extract was loaded into a 3 mL lure lock syringe and filtered through a 0.2 μm pore size filter into a clean test tube. 1 mL of the filtrate was placed into a clean test tube and 4 mL of 50:50 acetonitrile/H2O was added. The test tube was vortexed for 30 seconds. About 2 mL of the solution was loaded into a 3 mL lure lock syringe and filtered into an High Performance Liquid Chromatography vial.
For data set [2] the following is noted: limit of solubility.
Data set [3] can be described thus: Calculated risperidone release and plasma levels in dogs from in vitro release (in vitro to in vivo correlation). As to conditions: suggested by calculated release and apomorphine data.
For data set [4] the following is noted: powder in polypropylene syringes, 5.8 to 31 KGy.
Experimental: The eight formulations prepared for testing were sterilized in glass vials and gamma resistant polypropylene copolymer syringes using various dose levels of irradiation.
The dose level was 30 to 33 KGy for each of the samples.
Syringes and glass vials obtained from the gamma radiation testing were analyzed with the control formulations.
These were loaded into gamma-irradiation polypropylene syringes and capped.

Regarding `Cc1nc2n(c(=O)c1CCN1CCC(c3noc4cc(F)ccc34)CC1)CCCC2` [Risperidone, 4-[2-[4-(6-fluorobenzo[d]isoxazol-3-yl)-1-piperidyl]ethyl]-3-methyl-2,6-diazabicyclo[4.4.0]deca-1,3-dien-5-one], the “stability of risperidone in ATRIGEL implants” value in data set [1] is on record as “stable in ATRIGEL® implants for 28 days”. Besides, in data set [2], the “solubility in N-methyl-2-pyrrolidone” value is on record as “up to 5 % by weight”. In addition, the “minimum daily dose of risperidone needed in dogs for a biological response” value in data set [3] is reported as “about 0.6 mg”. In addition, the “color after gamma irradiation” value in data set [4] is recorded as “turned beige at the lowest level of irradiation”.

The values above are taken from patent US10010612B2 (Indivior UK Limited, priority 2007, dated 2018).
